Laboratory results taken from PubChem BioAssay AID463101 (The Scripps Research Institute Molecular Screening Center, 2010).
Activity calls are given as the source filed them.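 The calls were made as follows: active = at 63 nM, GSTO1 inhibition of at least 80% or band labeling of at least 80% relative to 1 µM; inactive = the rest.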

Molecular target: Glutathione S-transferase omega-1 (Homo sapiens) (UniProt P78417)
Assay: GSTO1 inhibition versus direct click labeling – cell lysate, MDA-MB-435 proteome, click chemistry, set 2, mechanism study for GSTO1 inhibitor project, late-stage follow-up (AID 463101)
Conditions: MDA-MB-435 soluble proteome, gel ABPP fluorescence; for outcome / labeling: direct click chemistry labeling assay; for labeling: click chemistry direct labeling series, at 0.25 µM, stronger effect = higher value; for inhibition: in situ competitive ABPP, probe SE-Rh, at 1 µM (top of the series)

Sequence of Glutathione S-transferase omega-1 (Homo sapiens) (P78417 whole entry, looked up): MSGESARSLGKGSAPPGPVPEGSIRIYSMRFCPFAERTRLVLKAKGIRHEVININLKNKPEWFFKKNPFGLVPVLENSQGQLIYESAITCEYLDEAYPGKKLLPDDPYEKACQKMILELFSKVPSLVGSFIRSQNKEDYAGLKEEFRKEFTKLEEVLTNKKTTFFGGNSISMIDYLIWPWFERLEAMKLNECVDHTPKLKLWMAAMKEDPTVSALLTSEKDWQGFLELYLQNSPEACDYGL

outcome	labeling [%]	inhibition	SMILES
active	94	100%	C#CCN(CCCN(C(=O)CCl)c1ccc([N+](=O)[O-])cc1)C(=O)C(F)(F)F
inactive	77	100% (inactive)	C#CCCC(=O)NCCCN(C(=O)CCl)c1ccc([N+](=O)[O-])cc1
